Measurements reported in patent US9145415B2, “Nitrogen-containing heterocyclic compound or salt thereof” (FUJIFILM Corporation, priority 2012, dated 2015).
Read-outs that look alike come from different tables or passages of the source.

Tests used:
[1] = molecular target: T1, human FLT3 protein (FLT3 (WT)) (Homo sapiens, UniProt P36888); experiment: FLT3 inhibition test (FLT3 enzyme inhibition, time-resolved fluorescence of substrate peptide phosphorylation); format: biochemical; conditions: read-out: FLT3 (WT) enzyme inhibition activity
T1 construct: human FLT3 protein (intracellular region, 564 to 993 aa); GST; purchased Carna Biosciences; host or cells: baculovirus expression system
T1 sequence (P36888 564-993): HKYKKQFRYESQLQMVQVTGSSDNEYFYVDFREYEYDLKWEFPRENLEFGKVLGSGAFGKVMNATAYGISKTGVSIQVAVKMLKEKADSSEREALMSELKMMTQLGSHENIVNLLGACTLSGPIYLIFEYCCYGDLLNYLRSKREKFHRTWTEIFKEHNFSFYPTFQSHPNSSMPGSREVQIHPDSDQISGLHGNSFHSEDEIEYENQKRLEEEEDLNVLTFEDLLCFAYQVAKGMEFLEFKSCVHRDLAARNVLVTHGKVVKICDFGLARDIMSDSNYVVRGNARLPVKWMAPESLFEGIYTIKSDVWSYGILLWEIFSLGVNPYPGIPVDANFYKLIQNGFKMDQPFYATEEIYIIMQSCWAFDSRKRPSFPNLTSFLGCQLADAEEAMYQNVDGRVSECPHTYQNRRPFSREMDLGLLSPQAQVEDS
Protocol: The FLT3 inhibition test was performed for the compounds of the present invention by the method described below.
A reaction mixture in a volume of 9 μL containing the FLT3 protein and a test compound of a predetermined concentration (1.2 μg of FLT3, 100 mM HEPES, 10 mM MgCl2, 25 mM NaCl, 0.01% BSA, 1 mM DTT, pH 7.5) was left standing at 25° C. for 15 minutes. […] (Toray Industries), and 3 μL (final concentration 50 μM) of ATP (Sigma-Aldrich) were added to the reaction mixture, and the mixture was shaken for 2 minutes, and then further left standing at 25° C. for 30 minutes to allow the enzymatic reaction.

[2] = tested on: MV4-11 cells; experiment: Leukemia cell proliferation inhibition test (ATPlite), MV4-11; format: cell-based; conditions: read-out: MV4-11 cell proliferation inhibition effect
Protocol: (§1) A leukemia cell proliferation inhibition test was performed for the compounds of the present invention by using the leukemia cell strains MV4-11 (ATCC Number, CRL-9591) and Molm-13 (DSMZ Number, ACC554).
(§2) The leukemia cell proliferation inhibition test was performed by the method described below.
(§3) For the purpose of measuring proliferation inhibition attained with a compound, the total cell count was quantified on the basis of the total cellular ATP concentration using the ATPlite (PerkinElmer) reagent utilizing firefly luciferase. The Molm-13 or MV4-11 cells were added to the RPMI medium containing penicillin and streptomycin (penn/strep) and 10% FBS at a density of 2×10^5 cells/ml, and 50 μL (10,000 cells) of the cell suspension was inoculated to each well of a 96-well plate (Corning).
(§4) A serially diluted solution of a compound or 0.1% DMSO (solvent control) in a volume of 50 μL was added to the cells, and then the cells were cultured for 72 hours under the standard cell proliferation conditions (37° C., 5% CO2) to allow proliferation of the cells. In order to measure the proliferation of the total cells, equal volume of the ATPlite reaction mixture was added to each well in accordance with the instructions attached to ATPlite, and then luminescence count of the well was measured (relative light unit, RLU).
(§5) The RLU signal observed with the DMSO solvent control after 72 hours of the culture was defined as a signal indicating 0% inhibition, and the GI50 value for the proliferation inhibition corresponds to a concentration of a compound that provides 50% inhibition based on the proliferation of the total cells contained in the DMSO solvent control. Each data point was obtained from samples in duplicate. The GI50 values were calculated by the non-linear regression fitting (Fit Model (205)) according to a sigmoid dose-reaction equation using the XLfit software.

[3] = tested on: Molm-13 cells; experiment: Leukemia cell proliferation inhibition test (ATPlite), Molm-13; format: cell-based; conditions: read-out: MOLM13 cell proliferation inhibition effect
Protocol: as §1, §2, §3, §4, §5

[4] = GST-fused human FLT3 (564 to 993 aa), ATP 50 μM
[5] = Homo sapiens, MV4-11, 72 h, MV4-11, 72 hours culture, ATPlite, GI50 per method
[6] = Homo sapiens, MOLM-13, 72 h, Molm-13, 72 hours culture, ATPlite, GI50 per method
[7] = Homo sapiens, MV4-11, MV4-11 cell
[8] = Homo sapiens, MOLM-13, MOLM13 cell

| Structure (SMILES) | IC50 [1, 4] | IC50 [2, 5] | IC50 [3, 6] | IC50 ([2]; MV4-11, 72 hours culture, ATPlite, GI50 per method) | IC50 ([3]; Molm-13, 72 hours culture, ATPlite, GI50 per method) | IC50 ([1]; FLT3 (WT)) | IC50 [2, 7] | IC50 [3, 8] |
| --- | --- | --- | --- | --- | --- | --- | --- | --- |
| CCNc1nc(Nc2ccc3cnn(C)c3c2)ncc1C#CCCCNC(=O)[C@H](C)N(C)C(=O)/C=C/CN(C)C [Compound 10-57] | < 10 nM | < 10 nM | < 10 nM |  |  |  |  |  |
| CCCNc1nc(Nc2ccc(C(=O)N(C)C)cc2)ncc1C#CCCCNC(=O)[C@H](C)N(C)C(=O)/C=C/CN(C)C [Compound 7-15] | 10 to 100 nM | < 10 nM | < 10 nM |  |  |  |  |  |
| CCCNc1nc(Nc2ccnc(F)c2)ncc1C#CCCCNC(=O)[C@H](CC)N(C)C(=O)/C=C/CN(C)C [Compound 9-18] | < 10 nM | < 10 nM | < 10 nM |  |  |  |  |  |
| CCCNc1nc(Nc2cccc(F)c2)ncc1C#CCCCNC(=O)[C@@H]1CCCN1C(=O)/C=C/CN(C)C [Compound 7-45] | < 10 nM |  |  | < 10 nM | < 10 nM |  |  |  |
| CCCNc1nc(Nc2ccc(C#N)cc2)ncc1C#CCCC(=O)NC(C)(C)CN(C)C(=O)/C=C/CN(C)C [Compound 8-16] | 10 to 100 nM | 10 to 100 nM | 100 to 1000 nM |  |  |  |  |  |
| COCCCNc1nc(Nc2ccc3c(cnn3C)c2)ncc1C#CCCCNC(=O)[C@H](C)N(C)C(=O)/C=C/CN(C)C [Compound 10-55] | < 10 nM | < 10 nM | < 10 nM |  |  |  |  |  |
| C=CC(=O)NCC(=O)NCCCNC(=O)c1cnc(Nc2ccc3cnccc3c2)nc1NCCC [Compound 6-5] | < 10 nM | 10 to 100 nM | 10 to 100 nM |  |  |  |  |  |
| COc1ccc(Nc2ncc(C#CCCCNC(=O)[C@H](C)N(C)C(=O)/C=C/CN(C)C)c(NC3CC3)n2)cc1F [Compound 7-42, (S,E)-N-(1-((5-(4-(Cyclopropylamino)-2-((3-fluoro-4-methoxyphenyl)amino)pyrimidin-5-yl)-4-pentyn-1-yl)amino)-1-oxopropan-2-yl)-4-(dimethylamino)-N-methyl-2-butenamide] | < 10 nM | < 10 nM | < 10 nM |  |  |  |  |  |
| CCCNc1nc(Nc2ccc(C#N)cc2)ncc1C#C[C@H]1CC[C@H](NC(=O)[C@H](C)N(C)C(=O)/C=C/CN(C)C)C1 [Compound 13-12] | < 10 nM | < 10 nM | < 10 nM |  |  |  |  |  |
| COCCCNc1nc(Nc2ccc(F)nc2)ncc1C#CCCCNC(=O)CN(C)C(=O)/C=C/CN(C)C [Compound 10-31] | < 10 nM | < 10 nM | 10 to 100 nM |  |  |  |  |  |
| CCCNc1nc(Nc2ccc(C(N)=O)cc2)ncc1C(=O)Nc1cccc(NC(=O)[C@H](C)N(C)C(=O)/C=C/CN(C)CC)c1 [Compound 4-3] | < 10 nM | < 10 nM | < 10 nM |  |  |  |  |  |
| CCCNc1nc(Nc2ccc(C(N)=O)cc2)ncc1C(=O)Nc1cccc(N2CCN(C(=O)/C=C/CN(C)C)CC2)c1 [Compound 3-31] | < 10 nM | 100 to 1000 nM | 100 to 1000 nM |  |  |  |  |  |
| CCCNc1nc(Nc2ccnc(F)c2)ncc1C#CC(C)(C)CCNC(=O)[C@H](C)N(C)C(=O)/C=C/CN(C)C [Compound 9-19] | < 10 nM | < 10 nM | < 10 nM |  |  |  |  |  |
| CCCNc1nc(Nc2ccc(C#N)cc2)ncc1C#CCCCNC(=O)[C@H](COC)NC(=O)/C=C/CN(C)C [Compound 7-44] | < 10 nM | < 10 nM | < 10 nM |  |  |  |  |  |
| C=CC(=O)N(C)[C@@H](C)C(=O)NCCCNC(=O)c1cnc(Nc2ccc(C(N)=O)cc2)nc1NCCC [Compound 5-3] | < 10 nM | 10 to 100 nM | 10 to 100 nM |  |  |  |  |  |
| COCCCNc1nc(Nc2ccnc(OC)c2)ncc1C#CCCCNC(=O)[C@H](C)N(C)C(=O)/C=C/CN(C)C [Compound 9-31] | < 10 nM | < 10 nM | < 10 nM |  |  |  |  |  |
| CCCNc1nc(Nc2cccc(F)c2)ncc1C#Cc1ccccc1CNC(=O)[C@H](C)N(C)C(=O)/C=C/CN(C)C [Compound 7-25] | < 10 nM | < 10 nM | 10 to 100 nM |  |  |  |  |  |

More lines, now with the values ahead:

| IC50 [1, 4] | IC50 [2, 5] | IC50 [3, 6] | IC50 ([2]; MV4-11, 72 hours culture, ATPlite, GI50 per method) | IC50 ([3]; Molm-13, 72 hours culture, ATPlite, GI50 per method) | IC50 ([1]; FLT3 (WT)) | IC50 [2, 7] | IC50 [3, 8] | Structure (SMILES) |
| --- | --- | --- | --- | --- | --- | --- | --- | --- |
| < 10 nM | < 10 nM | < 10 nM |  |  |  |  |  | C[C@@H](C(=O)N[C@H]1C[C@@H](C#Cc2cnc(Nc3ccc(F)cc3)nc2NC2CC2)C1)N(C)C(=O)/C=C/CN(C)C (relative stereo) [Compound 15-9, (E)-N—((S)-1-(((1S*,3R*)-3-((4-(Cyclopropylamino)-2-((4-fluorophenyl)amino)pyrimidin-5-yl)ethynyl)cyclobutyl)amino)-1-oxopropan-2-yl)-4-(dimethylamino)-N-methyl-2-butenamide] |
|  |  |  |  |  | < 10 nM | < 10 nM | < 10 nM | CCCNc1nc(Nc2ccc3ncsc3c2)ncc1C#CCCCNC(=O)[C@H](C)N(C)C(=O)/C=C/CN(C)C [Compound 22-6, (S,E)-N-(1-((5-(2-(Benzo[d]thiazol-6-ylamino)-4-(propylamino)pyrimidin-5-yl)-4-pentyn-1-yl)amino)-1-oxopropan-2-yl)-4-(dimethylamino)-N-methyl-2-butenamide] |
| < 10 nM | < 10 nM | < 10 nM |  |  |  |  |  | CCCNc1nc(Nc2cccc(F)c2)ncc1-c1cc(CCNC(=O)[C@H](C)N(C)C(=O)/C=C/CN(C)C)no1 [Compound 17-1, (S,E)-4-(dimethylamino)-N-(1-((2-(5-(2-((3-fluorophenyl)amino)-4-(propylamino)pyrimidin-5-yl)isoxazol-3-yl)ethyl)amino)-1-oxopropan-2-yl)-N-methyl-2-butenamide] |
|  |  |  |  |  | < 10 nM | < 10 nM | < 10 nM | CCCNc1nc(Nc2ccc3cnn(C)c3c2)ncc1C#CCCCNC(=O)[C@@H]1CCCN1C(=O)/C=C/CN(C)C [Compound 22-32] |
| < 10 nM | < 10 nM | < 10 nM |  |  |  |  |  | CCOc1nc(Nc2ccc(C#N)cc2)ncc1C#C[C@@H]1CCC[C@H](NC(=O)[C@H](C)N(C)C(=O)/C=C/CN(C)C)C1 [Compound 21-20] |
| < 10 nM | < 10 nM | 10 to 100 nM |  |  |  |  |  | CCCNc1cc(Nc2cccc(F)c2)ncc1C(=O)Nc1cccc(NC(=O)[C@H](C)N(C)C(=O)/C=C/CN(C)C)c1 [Compound 18-2, (S,E)-N-(3-(2-(4-(dimethylamino)-N-methyl-2-butenamido)propanamido)phenyl)-6-((3-fluorophenyl)amino)-4-(propylamino)nicotinamide] |
| < 10 nM | 10 to 100 nM | 100 to 1000 nM |  |  |  |  |  | CCCNc1nc(Nc2ccc(C(N)=O)cc2)ncc1-c1ccc(CNC(=O)CNC(=O)/C=C/CN(C)C)cc1 [Compound 16-2] |
| < 10 nM | < 10 nM | 10 to 100 nM |  |  |  |  |  | C[C@@H](C(=O)NCCCC#Cc1cnc(Nc2cccc(F)c2)nc1NCC1CC1)N(C)C(=O)/C=C/CN(C)C [Compound 21-4] |
| < 10 nM | < 10 nM | < 10 nM |  |  |  |  |  | C[C@@H](C(=O)N[C@H]1CCC[C@@H](C#Cc2cnc(Nc3cccc(F)c3)nc2NC2CC2)C1)N(C)C(=O)/C=C/CN(C)C [Compound 21-29] |
|  |  |  |  |  | < 10 nM | < 10 nM | < 10 nM | CCCNc1nc(Nc2ccc3cn[nH]c3c2)ncc1C#CCCCNC(=O)[C@@H]1CCCN1C(=O)/C=C/CN(C)C [Compound 22-63] |
| < 10 nM | 10 to 100 nM | 100 to 1000 nM |  |  |  |  |  | CCCNc1nc(Nc2ccc(C(N)=O)cc2)ncc1-c1cccc(CCNC(=O)CNC(=O)/C=C/CN(C)C)c1 [Compound 16-1, (E)-4-((5-(3-(2-(2-(4-(dimethylamino)-2-butenamido)actamido)ethyl)phenyl)-4-(propylamino)pyrimidin-2-yl)amino)benzamide] |
